# According to paper PMC8715119, “Second-generation non-hematopoietic erythropoietin-derived peptide for neuroprotection” (Redox Biology, 2021):
# Legend:
# HT-22 cells = experiment: ROS level by H2DCFDA after hypoxia and re-oxygenation; assay type: cell-based, mouse; conditions: reEPO 0.5 IU/ml, ML1-h3 1 ng/ml, n = 12
# Description: HT-22 cells (kindly provided by Prof. Gil-Saeng Jeong in Keimyung University), an immortalized mouse hippocampal cell line, were cultured at 37°C and 5% CO2 in Dulbecco's modified eagle medium (DMEM, Invitrogen, USA) supplemented with 10% FBS and 1% penicillin/streptomycin at 37°C and 5% CO2.
# The cellular ROS level was measured using 2′,7′-dichlorodihydrofluorescein diacetate (H2DCFDA) (#D399, Invitrogen, USA). The cells were incubated with 5 μM H2DCFDA in PBS for 30 min, washed with PBS, and then resuspended in the medium for 2 h. After treatment of H2O2 without or with reEPO, or peptide, we monitored the oxidative stress by measuring the fluorescence intensities of H2DCFDA by using excitation and emission wavelengths of 485 nm and 535 nm, respectively.
# The HT-22 cells were seeded onto 96-well or 6-well plates. The next day, HT-22 cells were placed inside a sealed air-tight container consisting of an anaeropack (Mitsubishi Gas Company, Tokyo, Japan), which can induce a hypoxic atmosphere by absorbing oxygen and generating carbon dioxide. The cells were maintained in the hypoxic condition at 37°C for 18 h and re-oxygenated for 3 h at 37°C and 5% CO2. Subsequently, the cells were treated with reEPO or the peptides for 19 h before viability analysis.
# cleaved Caspase 3 = experiment: Immunoblot of cleaved Caspase 3 after hypoxia and re-oxygenation; assay type: cell-based, mouse; conditions: HT-22 cells; reEPO 0.5 IU/ml, ML1-h3 1 ng/ml; normalized by β-Actin; n = 6
# Description: (§1) PC12 or HT-22 cells were lysed in 100 mM Tris-Cl (pH 6.8) with 4% SDS. The lysates were loaded onto sodium dodecyl sulfate-polyacrylamide gel electrophoresis (SDS-PAGE) (8–10%), and the proteins were transferred onto the nitrocellulose membrane. The membrane was blocked with 0.1% TBST and 5% non-fat dry milk at 25°C for 30 min. Primary antibodies were diluted in 0.1% TBST and 3% bovine serum albumin (BSA). The primary antibodies included anti-pJAK2 (#3776, Cell Signaling Technology, USA), anti-JAK2 (#3230, Cell Signaling Technology, USA), anti-pSTAT5 (#9351, Cell Signaling Technology, USA), anti-STAT5 ([…], Cell Signaling Technology, USA), anti-pAKT (#9271, Cell Signaling Technology, USA), anti-AKT (#9272, Cell Signaling Technology, USA), anti-pERK (#9101, Cell Signaling Technology, USA) anti-ERK (#9102, Cell Signaling Technology, USA), anti-EPOR (#sc-365662, Santa Cruz Biotechnology, USA), anti-β-Actin (Santa Cruz Biotechnology, USA), anti-Bax (Santa Cruz Biotechnology, USA), anti-cleaved Casp3 (Cell Signaling Technology, USA), and anti-cleaved Parp1 (Cell Signaling Technology, USA).
# (§2) The HT-22 cells were seeded onto 96-well or 6-well plates. The next day, HT-22 cells were placed inside a sealed air-tight container consisting of an anaeropack (Mitsubishi Gas Company, Tokyo, Japan), which can induce a hypoxic atmosphere by absorbing oxygen and generating carbon dioxide. […]
# cleaved Parp1 = experiment: Immunoblot of cleaved Parp1 after hypoxia and re-oxygenation; assay type: cell-based, mouse; conditions: HT-22 cells; reEPO 0.5 IU/ml, ML1-h3 1 ng/ml; normalized by β-Actin; n = 6
# Description: as §1, §2
# ERK = experiment: Time-series immunoblot of phosphorylated ERK; assay type: cell-based, rat; conditions: PC12 cells; 1 nM; peak at 15 min, below basal at 30 min, then recovery; n = 3
# Description: as §1
# mouse ischemic model = experiment: Middle cerebral artery occlusion (MCAO) and reperfusion, TTC staining of brain; assay type: in vivo; conditions: MCAO 90 min, 24 h reperfusion, intravenous reEPO 2000 IU/kg (n = 4)
# Description: The protocol of this experiment was approved by the Animal Care and Use Committee of the Keimyung University School of Medicine. After 1 week of acclimatization, mice were anesthetized with 3% isoflurane in a mixture of 70% N2O and 30% O2, and the anesthesia was maintained with 1.5–2.0% isoflurane. After the neck skin incision, the bifurcation of the common carotid artery was exposed. The external carotid artery was ligated, and the internal carotid artery was carefully isolated from the vagus nerve. A microvascular clip was placed across the right common carotid artery. Through the external carotid stump, a 7–0 surgical nylon monofilament with silicon coat was advanced into the right internal carotid artery up to the origin of the middle cerebral artery. […] During the surgery, rectal temperature was monitored and maintained at 37 ± 0.5 °C with a feedback-controlled heating pad (CMA 150, Stockholm, Sweden). […]
# The brain was rapidly dissected out and coronally sliced into 2-mm-thick sections. […] The infarct volumes of the TTC-stained brain sections were imaged with a digital camera and analyzed. Using NIH ImageJ software (NIH, USA), the intensity of TTC in MCAO- and no-MCAO-performed hemispheres were digitally measured, and the ratio (MCAO versus non-MCAO) was presented as a percentage.
substance,measurement,setting,value
"reEPO: Recombinant human EPO (Epoetin-α, CJ HealthCare Corporation)",ROS level induced by H/R,HT-22 cells,decreased ROS level induced by H/R
same,Level of cleaved Caspase 3 under H/R,cleaved Caspase 3,"efficiently reduced the levels of Bax, cleaved Caspase 3"
same,Level of cleaved Parp1 under H/R,cleaved Parp1,"efficiently reduced the levels of Bax, cleaved Caspase 3, and cleaved Parp1"
same,Level of phosphorylated ERK (pERK) over time,ERK,acutely increased the level of phosphorylated ERK
same,TTC staining in MCAO-performed versus contralateral side (brain injury),mouse ischemic model,inhibited extinction of TTC-staining in MCAO-performed side
